The text below walks through data of patent US20080021030A1, “Substituted Pyrazoles As Ppar Agonists” (priority 2003, published 2008).

Structures are written as SMILES.

The term melting point denotes the temperature of the solid-liquid transition. As usually defined, the EC50 is the concentration giving half of the maximal effect.

For one data set, the target named is T1, hPPAR delta (Homo sapiens, UniProt Q03181).
T1 construct: expressed in transfected cells; host or cells: CV-1 cells
T1 sequence (Q03181 211-439 limits assumed): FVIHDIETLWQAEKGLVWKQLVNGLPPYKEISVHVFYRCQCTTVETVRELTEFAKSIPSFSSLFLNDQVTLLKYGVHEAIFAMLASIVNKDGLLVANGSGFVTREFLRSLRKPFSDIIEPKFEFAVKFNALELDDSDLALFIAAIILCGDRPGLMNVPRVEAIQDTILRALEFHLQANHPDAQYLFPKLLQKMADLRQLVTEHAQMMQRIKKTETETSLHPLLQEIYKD
Briefly: Transient transfection (transactivation) assay in CV-1 cells, GAL4-PPAR LBD chimera, SPAP reporter. The format is cell-based. As to conditions: read-out: EC50 μM HPPARδ. An excerpt: (§1) Compounds were screened for functional potency in transient transfection assays in CV-1 cells for their ability to activate the PPAR subtypes (transactivation assay). A previously established chimeric receptor system was utilized to allow comparison of the relative transcriptional activity of the receptor subtypes on the same target gene and to prevent endogenous receptor activation from complicating the interpretation of results. See, for example, Lehmann, J. M.; Moore, L. B.; Smith-Oliver, T. A.; Wilkison, W. O.; Willson, T. M.; Kliewer, S. A., An antidiabetic thiazolidinedione is a high affinity ligand for peroxisome proliferator-activated receptor gamma (PPARgamma), J. Biol. Chem., 270, 12953-6 (1995). The ligand binding domains for murine and human PPAR alpha, PPAR gamma, and PPAR delta were each fused to the yeast transcription factor GAL4 DNA binding domain. CV-1 cells were transiently transfected with expression vectors for the respective PPAR chimera along with a reporter construct containing five copies of the GAL4 DNA binding site driving expression of secreted placental alkaline phosphatase (SPAP) and beta-galactosidase. After 16 h, the medium was exchanged to DME medium supplemented with 10% delipidated fetal calf serum and the test compound at the appropriate concentration. After an additional 24 h, cell extracts were prepared and assayed for alkaline phosphatase and β-galactosidase activity. Alkaline phosphatase activity was corrected for transfection efficiency using the beta-galactosidase activity as an internal standard (see, for example, Kliewer, S. A., et. al. Cell 83, 813-819 (1995)). Rosiglitazone (BRL 49653) was used as a positive control in the hPPAR gamma assay. The positive control in the hPPAR alpha assays was 2-4-[2-(3-[4-fluorophenyl]-1-heptylureido)ethyl]-phenoxy-(2-methyl propionic acid (WO 97/36579). The positive control for PPAR delta assays was 2-{2-methyl-4-[({4-methyl-2-{trifluoromethyl)phenyl]-1,3-thiazol-5-yl}methyl)sulfanyl]phenoxy}acetic acid (WO 01/00603). The positive control was (5-{4-[2-(Methyl-pyridin-2-yl-amino)-ethoxy]-benzyl}-thiazolidine-2,4-dione (J. Med. Chem. 1994, 37(23), 3977), for PPAR gamma.
(§2) Activities in three hPPAR subtypes are reported in the table and are expressed in micromolar.

The next data set addresses T2, hPPAR alpha (Homo sapiens, UniProt Q07869).
T2 construct: expressed in transfected cells; host or cells: CV-1 cells
T2 sequence (Q07869 239-466 limits assumed): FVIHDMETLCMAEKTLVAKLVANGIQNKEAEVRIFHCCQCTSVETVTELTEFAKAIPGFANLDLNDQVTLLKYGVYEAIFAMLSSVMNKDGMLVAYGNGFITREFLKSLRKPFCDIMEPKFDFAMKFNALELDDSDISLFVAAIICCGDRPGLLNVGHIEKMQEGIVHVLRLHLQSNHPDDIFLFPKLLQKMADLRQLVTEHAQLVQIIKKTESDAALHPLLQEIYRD
The description is as above. The format is cell-based. To be noted: read-out: EC50 μM HPPARα.
From the text: as §1, §2

The next data set addresses T3, hPPAR gamma (Homo sapiens, UniProt P37231).
T3 construct: expressed in transfected cells; host or cells: CV-1 cells
T3 sequence (P37231 238-503 limits assumed): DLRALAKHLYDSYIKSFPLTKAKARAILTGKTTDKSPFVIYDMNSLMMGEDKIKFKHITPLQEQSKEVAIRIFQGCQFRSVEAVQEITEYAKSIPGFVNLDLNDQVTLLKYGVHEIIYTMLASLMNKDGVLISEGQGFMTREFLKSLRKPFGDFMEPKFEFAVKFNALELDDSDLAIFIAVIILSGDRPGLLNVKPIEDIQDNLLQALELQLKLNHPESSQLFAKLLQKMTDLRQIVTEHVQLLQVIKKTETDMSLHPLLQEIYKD
The data set is described as above. It counts as cell-based. As to conditions: read-out: EC50 μM HPPARγ. An excerpt:
Compounds were screened for functional potency in transient transfection assays in CV-1 cells for their ability to activate the PPAR subtypes (transactivation assay). A previously established chimeric receptor system was utilized to allow comparison of the relative transcriptional activity of the receptor subtypes on the same target gene and to prevent endogenous receptor activation from complicating the interpretation of results. […] The ligand binding domains for murine and human PPAR alpha, PPAR gamma, and PPAR delta were each fused to the yeast transcription factor GAL4 DNA binding domain. CV-1 cells were transiently transfected with expression vectors for the respective PPAR chimera along with a reporter construct containing five copies of the GAL4 DNA binding site driving expression of secreted placental alkaline phosphatase (SPAP) and beta-galactosidase. After 16 h, the medium was exchanged to DME medium supplemented with 10% delipidated fetal calf serum and the test compound at the appropriate concentration. After an additional 24 h, cell extracts were prepared and assayed for alkaline phosphatase and β-galactosidase activity.

With `Cc1cc(CNC(=O)c2cc(-c3ccc(C(C)(C)C)cc3)nn2C)cc(C)c1OC(C)(C)C(=O)O` [Example 26, 2-{4-[({[3-(4-tert-butylphenyl)-1-methyl-1H-pyrazol-5-yl]carbonyl}amino)methyl]-2,6-dimethylphenoxy}-2-methylpropanoic acid], the melting point was over 122 °C. Also, the EC50 on hPPAR delta is 1 µM. Moreover, the half-maximal effective concentration (EC50) at hPPAR alpha came out at 0.003 µM. In addition, the 50% effective concentration (EC50) on hPPAR gamma came out at 0.016 µM.

The molecule `Cc1cc(CNC(=O)c2cc(-c3ccc(CC(C)C)cc3)n(C)n2)cc(Cl)c1OC(C)(C)C(=O)O` [Example 27, 2-{2-chloro-4-[({[5-(4-isobutylphenyl)-1-methyl-1H-pyrazol-3-yl]carbonyl}amino)methyl]-6-methylphenoxy}-2-methylpropanoic acid] had a melting point of 75 to 80 °C. In addition, the half-maximal effective concentration (EC50) at hPPAR delta came out at 0.206 µM. The EC50 at hPPAR alpha was under 0.001 µM. In addition, the EC50 on hPPAR gamma turned out to be 0.031 µM.

`Cc1cc(CNC(=O)c2cc(-c3cccc(-c4ccccc4)c3)nn2C)ccc1OC(C)(C)C(=O)O` [Example 28, 2-[4-({[(3-biphenyl-3-yl-1-methyl-1H-pyrazol-5-yl)carbonyl]amino}methyl)-2-methylphenoxy]-2-methylpropanoic acid] yielded a melting point of 88 °C. Moreover, the EC50 at hPPAR delta was over 25 µM. The EC50 on hPPAR alpha is 0.589 µM. For the same molecule, the EC50 at hPPAR gamma stood at 1.47 µM.

`Cc1cc(CNC(=O)c2cc(-c3ccc(Br)cc3)n(C)n2)ccc1OC(C)(C)C(=O)O` [Example 30, 2-({4-[({[5-(4-bromophenyl)-1-methyl-1H-pyrazol-3-yl]carbonyl}amino)methyl]-2-methylphenyl}oxy)-2-methylpropanoic acid] had a melting point of 84 to 92 °C. Also, the EC50 on hPPAR delta was 3.12 µM. Moreover, on hPPAR alpha, the EC50 amounted to 0.046 µM. In addition, the concentration giving a half-maximal response (EC50) on hPPAR gamma turned out to be 0.229 µM.

`Cc1cc(CNC(=O)c2cc(-c3ccc(-c4cccs4)cc3)n(C)n2)ccc1OC(C)(C)C(=O)O` [Example 32, 2-methyl-2-[(2-methyl-4-{[({1-methyl-5-[4-(2-thienyl)phenyl]-1H-pyrazol-3-yl}carbonyl)amino]methyl}phenyl)oxy]propanoic acid] returned a melting point of 92 °C. In addition, the EC50 at hPPAR delta is over 25 µM. Moreover, on hPPAR alpha, the concentration giving a half-maximal response (EC50) was determined as 0.015 µM. In addition, on hPPAR gamma, the 50% effective concentration (EC50) was 0.023 µM.

`Cc1cc(CNC(=O)c2cc(-c3ccc(-c4ccoc4)cc3)n(C)n2)ccc1OC(C)(C)C(=O)O` [Example 33, 2-[(4-{[({5-[4-(3-furanyl)phenyl]-1-methyl-1H-pyrazol-3-yl}carbonyl)amino]methyl}-2-methylphenyl)oxy]-2-methylpropanoic acid] came in with a melting point of 102 °C. For the same molecule, the EC50 on hPPAR delta is 1.64 µM. Further, at hPPAR alpha, the EC50 amounted to 0.004 µM.

On to `Cc1cc(CNC(=O)c2cc(-c3ccc(-c4ccncc4)cc3)n(C)n2)ccc1OC(C)(C)C(=O)O` [Example 34, 2-methyl-2-[(2-methyl-4-{[({1-methyl-5-[4-(4-pyridinyl)phenyl]-1H-pyrazol-3-yl}carbonyl)amino]methyl}phenyl)oxy]propanoic acid], for which the melting point is 264 °C (dec.). The EC50 at hPPAR delta was over 25 µM. Also, the EC50 at hPPAR alpha was determined as 0.734 µM.

As to `Cc1cc(CNC(=O)c2cc(-c3ccc(-c4ccco4)cc3)n(C)n2)ccc1OC(C)(C)C(=O)O` [Example 35, 2-[(4-{[({5-[4-(2-furanyl)phenyl]-1-methyl-1H-prazol-3-yl}carbonyl)amino]methyl}-2-methylphenyl)oxy]-2-methylpropanoic acid], the melting point turned out to be 96 °C. In addition, the half-maximal effective concentration (EC50) at hPPAR delta is over 25 µM. Besides, the EC50 on hPPAR alpha was determined as 0.024 µM. Besides, the 50% effective concentration (EC50) at hPPAR gamma was 0.054 µM.

The molecule `Cc1cc(CNC(=O)c2cc(-c3ccc(-c4ccccc4C)cc3)nn2C)ccc1OC(C)(C)C(=O)O` [Example 36, 2-methyl-2-{2-methyl-4-[({[1-methyl-3-(2′-methylbiphenyl-4-yl)-1H-pyrazol-5-yl]carbonyl}amino)methyl]phenoxy}propanoic acid] returned a melting point of 90 to 100 °C. Besides, the concentration giving a half-maximal response (EC50) on hPPAR delta was determined as 5.17 µM. The concentration for a half-maximal effect (EC50) at hPPAR alpha was found to be 0.176 µM. The EC50 on hPPAR gamma came to 0.037 µM.

The molecule `CCCCc1ccc(-c2cc(C(=O)NCc3cc(C)c(OC(C)(C)C(=O)O)c(C)c3)nn2C)cc1` [Example 37, 2-{4-[({[5-(4-butylphenyl)-1-methyl-1H-pyrazol-3-yl]carbonyl}amino)methyl]-2,6-dimethylphenoxy}-2-methylpropanoic acid] gave a melting point of 72 °C. Also, the EC50 on hPPAR delta was 0.449 µM. Besides, the EC50 at hPPAR alpha turned out to be 0.006 µM. Besides, the EC50 at hPPAR gamma worked out at 0.021 µM.

`CCCCc1ccc(-c2cc(C(=O)NCc3cc(C)c(OC(C)(C)C(=O)O)c(Cl)c3)nn2C)cc1` [Example 38, 2-{4-[({[5-(4-butylphenyl)-1-methyl-1H-pyrazol-3-yl]carbonyl}amino)methyl]-2-chloro-6-methylphenoxy}-2-methylpropanoic acid]: the melting point was 74 °C. The EC50 on hPPAR delta was over 25 µM. The EC50 at hPPAR alpha stood at 0.01 µM. The half-maximal effective concentration (EC50) on hPPAR gamma amounted to 0.072 µM.

For `Cc1cc(CNC(=O)c2cc(-c3ccc(C(C)(C)C)cc3)nn2CCN2CCOCC2)ccc1OC(C)(C)C(=O)O` [Example 55, 2-[(4-{[({3-[4-(1,1-dimethylethyl)phenyl]-1-[2-(4-morpholinyl)ethyl]-1H-pyrazol-5-yl}carbonyl)amino]methyl}-2-methylphenyl)oxy]-2-methyl propanoic acid], the EC50 at hPPAR delta was over 25 µM; on hPPAR alpha, 0.444 µM; at hPPAR gamma, 0.748 µM.

For `C=CCn1nc(-c2ccc(C(C)(C)C)cc2)cc1C(=O)NCc1ccc(OC(C)(C)C(=O)O)cc1` [Example 60, 2-({4-[({[3-[4-(1,1-dimethylethyl)phenyl]-1-(2-propen-1-yl)-1H-pyrazol-5-yl]carbonyl}amino)methyl]phenyl}oxy)-2-methylpropanoic acid], the results for the concentration giving a half-maximal response (EC50) on hPPAR delta, on hPPAR alpha and on hPPAR gamma were 5.93 µM, 0.192 µM and 1.38 µM, respectively.

With `Cc1cc(CNC(=O)c2cc(-c3ccc(C(C)(C)C)cc3)nn2Cc2ccccc2)ccc1OC(C)(C)C(=O)O` [Example 61, 2-({4-[({[3-[4-(1,1-dimethylethyl)phenyl]-1-(phenylmethyl)-1H-pyrazol-5-yl]carbonyl}amino)methyl]-2-methylphenyl}oxy)-2-methylpropanoic acid], the EC50 at hPPAR delta was 2.42 µM; on hPPAR alpha it was 0.115 µM; at hPPAR gamma it was 0.147 µM.

Regarding `C=CCn1nc(C(=O)NCc2ccc(OC(C)(C)C(=O)O)c(C)c2)cc1-c1ccc(C(C)(C)C)cc1` [Example 62, 2-({4-[({[5-[4-(1,1-dimethylethyl)phenyl]-1-(2-propen-1-yl)-1H-pyrazol-3-yl]carbonyl}amino)methyl]-2-methylphenyl}oxy)-2-methylpropanoic acid], the results for the EC50 at hPPAR delta, at hPPAR alpha and on hPPAR gamma were over 25 µM, 0.032 µM and 0.069 µM, respectively.
